Assay results: US11376271B1, “Methods of ameliorating the effects of alcoholic liver damage” (FULGENT LIFE INC., priority 2021, dated 2022)

How the values were obtained:
[1] = test system: C2C12, Neuro2a and AML12 cells; experiment: Toxicity: total cell number / trypan blue count after 24 h; format: cell-based; settings: 1 mM
Method: The sharp increase of NAD+ concentration indicates a possible toxicity to cells. To assess this toxicity, C2C12, Neuro2a and AML12 cells were treated with 1 mM NADH for 24 hours, and then the total cell numbers were measured. […] The cells were stained with trypan blue and then counted with a hemocytometer. […] The Annexin V/PI staining kit and Caspases3/7/SYTOX dead cell staining kit (Life Technologies) were used and cells were counted with a BD FACSCelesta™ flow cytometer. The quadrants of apoptotic cells, necrotic cells and living cells were identified and quantified according to the manufacturer's instructions.
To examine apoptotic markers, AML12 cells were stained for Annexin V and Caspase 3/7, and cells were counted with a flow cytometer. […] Quadrants with live cells (brown), necrotic cells (gray) and apoptotic cells (blue) were quantified.

male C57BL/6J mice [2] = experiment: Liver triglyceride and serum VLDL (lipid metabolism); format: in vivo; settings: 500 mg/kg intragastric 15 min prior to 8 ml/kg ethanol
Method: Liver samples were prepared with homogenization in cold isotonic saline. The homogenate (10%, w/v) was centrifuged at 4500 g for 10 minutes and the supernatant was used for biochemical analysis. The MDA, SOD and TG levels were determined with commercial kits (Abcam, #ab118970; Thermofisher, #EIASODC and Abcam, ab65336) according to the manufacturer's instructions. The results were normalized to the total protein determined by BCA Protein Assay Kit (Abcam, #ab102536) according to the manufacturer's instructions. […] Liver histopathology was detected by Oil Red 0 staining. According to the standard operating procedure, some liver tissues were fixed for histopathological assessment. The other part of the liver was stored at −80° C. […] frozen sections were stained with Oil Red 0 to detect liver steatosis. The stained sections were examined by a 400× optical microscope. The level of VLDL in serum samples was examined with a Bio-Tek synergy2 Multiscan Spectrum (Botten Instruments Co.). To evaluate alcoholic liver injury, the index of liver lipid metabolism (i.e., the triglyceride (TG) level in liver tissue) and the activity of serum Very Low Density Lipoprotein (VLDL) were also measured in the mice treated as described above in connection with FIG. 9A. […] The data in both FIGS. 9A and 9B are expressed as mean±SD (n=8); *p<0.01 vs control; #p<0.01 vs alcohol exposure.

male C57BL/6J mice [3] = experiment: Blood ethanol and acetaldehyde levels after ethanol administration
male C57BL/6J mice [4] = experiment: Tissue NAD+ content after intraperitoneal injection; format: in vivo; settings: 4 hours
Method: In the below in vivo assays, C57BL/6J male mice (The Jackson Laboratory) (40 days of age) were used. They were kept under standard laboratory conditions with a temperature of 22±1° C., dark/light cycles of 12/12 h, and relative humidity of 55±5%. All animals had free access to food and water, except for indicated fasting periods (and where not indicated for fasting periods of 2 hours before administration).
[…] Specifically, ten 8-week-old male C57BL/6J mice (The Jackson Laboratory) were kept in polycarbonate cages under a 12-h light/dark cycle with free access to food and water. […] Four hours later, the blood samples were collected by cardiac puncture and the mice were executed. Liver, brain, muscle, and adipose tissues were collected, instantly frozen in liquid nitrogen, and then stored at −80° C. until performance of the NAD+ analyses. […] Four hours later, the mice were killed and tissue samples were collected. All animal studies were performed according to the Guidelines for the Care and Use of Experimental Animals. For this NAD+ assay, about 100 mg of frozen tissue was crushed in liquid nitrogen and ultrasonically homogenized in 7% perchloric acid, and then the solution was neutralized and subjected to the NAD+ determination described here.
Data are indicated as mean±SD.

male C57BL/6J mice [5] = experiment: Liver histopathology by Oil Red O staining; format: in vivo; settings: 500 mg/kg intragastric 15 min prior to 8 ml/kg ethanol
Method: Liver histopathology was detected by Oil Red 0 staining. According to the standard operating procedure, some liver tissues were fixed for histopathological assessment. The other part of the liver was stored at −80° C. […] frozen sections were stained with Oil Red 0 to detect liver steatosis. The stained sections were examined by a 400× optical microscope. The level of VLDL in serum samples was examined with a Bio-Tek synergy2 Multiscan Spectrum (Botten Instruments Co.).

[6] = 500 mg/kg intragastric 15 min before 8 ml/kg ethanol (40% w/v)

In the case of NC(=O)C1=CN([C@@H]2O[C@H](COP(=O)(O)OP(=O)(O)OC[C@H]3O[C@@H](n4cnc5c(N)ncnc54)C(O)C3O)C(O)C2O)C=CC1 (stereo partly shown) [NADH, nicotinamide adenine dinucleotide (NAD)+hydrogen (H)], the “Trypan blue positive cells” value [1] is reported as “less than 5%”, the “loss of cultured cells (total cell number)” value [1] is reported as “no obvious loss” and the “liver TG level vs alcohol exposure alone” value (male C57BL/6J mice [2]) is reported as “decreased”. For the same compound, the “liver index vs alcohol exposure alone” value (male C57BL/6J mice [2]) was “decreased”, the “serum VLDL level vs alcohol exposure alone” value (male C57BL/6J mice [2]) was “decreased” and the “acetaldehyde in the blood two hours after alcohol administration” value (male C57BL/6J mice [3]; [6]) was “significantly reduced”. The “blood acetaldehyde levels within two hours after ethanol administration” value (male C57BL/6J mice [3]; [6]) was “significantly increased”, the “ethanol in the blood” value (male C57BL/6J mice [3]; 500 mg/kg oral 15 min before 8 ml/kg ethanol (40% w/v), 30 minutes after ethanol) was “significantly reduced” and the “increase of the concentration of NAD+ in the liver” value (male C57BL/6J mice [4]; 250 mg/kg intraperitoneal) was 680%. The “NAD+-promoting effect in skeletal muscle” value (male C57BL/6J mice [4]; 1000 mg/kg intraperitoneal) was “lowest”, the “content of NAD+ in blood, brain and fat” value (male C57BL/6J mice [4]; 1000 mg/kg intraperitoneal) was “increased several times” and the “increase of NAD+ content in liver” value (male C57BL/6J mice [4]; 1000 mg/kg intraperitoneal) was “more than 7 times”. For the same compound, the “degree of liver fatty degeneration (Oil Red O)” value (male C57BL/6J mice [5]) was “noticeably decreased”.
